According to patent US20260042774A1, “CAMPTOTHECIN-7-ETHYLAMINE DERIVATIVE, PREPARATION METHOD THEREFOR, AND USE THEREOF” (HANGZHOU ADCORIS BIOPHARMA CO., LTD, priority 2022, published 2026):

Experiments:
Format in all cases: cell-based
NCI-H1975 = assay: Tumor cell growth inhibitory activity, NCI-H1975; conditions: Homo sapiens; NCI-H1975 cells; read-out: IC50 (nM) for inhibiting the growth of tumor cells, NCI-H1975
MDA-MB-231 = assay: Tumor cell growth inhibitory activity, MDA-MB-231; conditions: Homo sapiens; MDA-MB-231 cells; read-out: IC50 (nM) for inhibiting the growth of tumor cells, MDA-MB-231
[1] = tested on: human gastric cancer cells NCI-N87; assay: Tumor cell growth inhibitory activity (CCK-8), NCI-N87; conditions: Homo sapiens; NCI-N87 cells, 72 h incubation, CCK-8; read-out: IC50 (nM) for inhibiting the growth of tumor cells, NCI-N87
Procedure: (§1) Human esophageal cancer cells OE33 (human breast adenocarcinoma cells SK-BR-3, or human gastric cancer cells NCI-N87) was cultured in RPMI1640 (Cellmax) supplemented with 10% fetal bovine serum (Cellmax). Cells in the exponential growth phase were diluted to a concentration of 1×10^5 cells/mL by culture medium and added to 96-well cell culture plates at 100 μL per well, then returned back and incubated overnight in a 37° C. incubator with 5% CO2. On the following day, the compounds were diluted to concentrations of 10000 nM, 2000 nM, 400 nM, 80 nM, 16 nM, 3.2 nM, 0.64 nM, and 0.13 nM by culture medium and the diluted compounds were added to the 96-well cell culture plates at 2 μL per well, with three replicate wells for each concentration. Negative control and blank control groups without addition of compounds were added with 2 μL of the dilution liquid per well. After the addition of the compounds, the plates were returned back to the 37° C. incubator with 5% CO2 to continue the incubation for 72 h. After the incubation, the cell culture plates were removed, and the culture medium was aspirated using a pipette. Then, 100 μL of culture medium containing 10% CCK-8 was added to each well, and the plates were incubated at 37° C. for 3 h. After the incubation, the plates were removed, kept in the dark, and placed in an ELISA plate. Absorbance was measured at 630 nm as the reference wavelength and 450 nm as the test wavelength. The IC50 values (Table 2) were calculated using the four-parameter logistic regression method in GraphPad.

[2] = tested on: Human esophageal cancer cells OE33; assay: Tumor cell growth inhibitory activity (CCK-8), OE33; conditions: Homo sapiens; OE33 cells, 72 h incubation, CCK-8; read-out: IC50 (nM) for inhibiting the growth of tumor cells, OE33
Procedure: as §1

[3] = tested on: human breast adenocarcinoma cells SK-BR-3; assay: Tumor cell growth inhibitory activity (CCK-8), SK-BR-3; conditions: Homo sapiens; SK-BR-3 cells, 72 h incubation, CCK-8; read-out: IC50 (nM) for inhibiting the growth of tumor cells, SK-BR-3
Procedure: as §1

SMILES	IC50 (NCI-H1975)	IC50 (MDA-MB-231)	IC50 [1]	IC50 [2]	IC50 [3]
CC[C@@]1(O)C(=O)OCc2c1cc1n(c2=O)Cc2c-1nc1cc(F)c(C)cc1c2CCNC(C)=O [Compound 1, 7-(2-Acetylamino)ethyl-10-methyl-11-fluorocamptothecin]	361 nM	350 nM	3.78 nM	21.3 nM	19.5 nM
CC[C@@]1(O)C(=O)OCc2c1cc1n(c2=O)Cc2c-1nc1cc(F)c(C)cc1c2CCNC(=O)C(F)F [Compound 2, 7-(2-Difluoroacetylamino)ethyl-10-methyl-11-fluorocamptothecin]	101 nM		1.9 nM	9.02 nM	16.6 nM
CC[C@@]1(O)C(=O)OCc2c1cc1n(c2=O)Cc2c-1nc1cc(F)c(C)cc1c2CCNC1CCOCC1 [Compound 4, 7-(2-(Tetrahydropyran-4-yl)amino)ethyl-10-methyl-11-fluorocamptothecin]	247 nM	321 nM	2.48 nM	4.39 nM	6.12 nM
CC[C@@]1(O)C(=O)OCc2c1cc1n(c2=O)Cc2c-1nc1cc(F)c(C)cc1c2CCN1CCNCC1 [Compound 5, 7-(2-(piperazin-4-yl))ethyl-10-methyl-11-fluorocamptothecin]	77.3 nM		5.66 nM	44 nM	60.4 nM
CC[C@@]1(O)C(=O)OCc2c1cc1n(c2=O)Cc2c-1nc1cc(F)c(C)cc1c2CCNC1CCC(O)CC1 (stereo partly shown) [Compound 6, 7-(2-(4-Hydroxycyclohexyl)amino)ethyl-10-methyl-11-fluorocamptothecin]	298 nM		3.85 nM	24.4 nM	28.7 nM
CC[C@@]1(O)C(=O)OCc2c1cc1n(c2=O)Cc2c-1nc1cc(F)c(C)cc1c2CCNC1CCC(OC)CC1 (stereo partly shown) [Compound 7, 7-(2-(4-Methoxycyclohexyl)amino)ethyl-10-methyl-11-fluorocamptothecin]	92.2 nM	147 nM	2.02 nM	6.46 nM	22.2 nM
CC[C@@]1(O)C(=O)OCc2c1cc1n(c2=O)Cc2c-1nc1cc(F)c(C)cc1c2CCNCCN=[N+]=[N-] [Compound 8, 7-(2-(2-Azidoethyl)amino)ethyl-10-methyl-11-fluorocamptothecin]	18.5 nM	80.4 nM	0.68 nM	3.26 nM	4.92 nM
CC[C@@]1(O)C(=O)OCc2c1cc1n(c2=O)Cc2c-1nc1cc(F)c(C)cc1c2CCN[C@@H](C)CCO [Compound 9, 7-(2-((S)-4-Hydroxybutan-2-yl)amino)ethyl-10-methyl-11-fluorocamptothecin]	121 nM	173 nM	1.6 nM	6.59 nM	14.1 nM
CC[C@@]1(O)C(=O)OCc2c1cc1n(c2=O)Cc2c-1nc1cc(F)c(F)cc1c2CCNCCO [Compound 10, 7-(2-Hydroxyethylamino)ethyl-10,11-difluorocamptothecin]			8.17 nM	58.3 nM	76.5 nM
CC[C@@]1(O)C(=O)OCc2c1cc1n(c2=O)Cc2c-1nc1cc(F)c(F)cc1c2CCN[C@@H](C)COC [Compound 11, 7-(2-((S)-2-Methoxyisopropyl)amino)ethyl-10,11-difluorocamptothecin]	12.6 nM	157 nM	1.67 nM	7.26 nM	19.2 nM
CC[C@@]1(O)C(=O)OCc2c1cc1n(c2=O)Cc2c-1nc1cc(F)c(F)cc1c2CCNC1CCC(O)CC1 (stereo partly shown) [Compound 12, 7-(2-(4-Hydroxycyclohexyl)amino)ethyl-10,11-difluorocamptothecin]	85.6 nM		5.47 nM	43 nM	41.7 nM
